Test results as given in paper PMC10578352, “Identification of a Protein Arginine Methyltransferase 7 (PRMT7)/Protein Arginine Methyltransferase 9 (PRMT9) Inhibitor” (Journal of Medicinal Chemistry, 2023).

Key:
Assay type in all cases: biochemical
[1] = molecular target: T1, GST-HsPRMT9 (Homo sapiens, UniProt Q6P2P2); assay: Radioisotope-based assay (SDS-PAGE, fluorography, densitometry), HsPRMT9; conditions: substrate GST-SF3B2 (401–550), 37 °C, read-out: % HsPRMT9 residual activity
T1 construct: made in house; host or cells: E. coli
T1 sequence (Q6P2P2 1-845): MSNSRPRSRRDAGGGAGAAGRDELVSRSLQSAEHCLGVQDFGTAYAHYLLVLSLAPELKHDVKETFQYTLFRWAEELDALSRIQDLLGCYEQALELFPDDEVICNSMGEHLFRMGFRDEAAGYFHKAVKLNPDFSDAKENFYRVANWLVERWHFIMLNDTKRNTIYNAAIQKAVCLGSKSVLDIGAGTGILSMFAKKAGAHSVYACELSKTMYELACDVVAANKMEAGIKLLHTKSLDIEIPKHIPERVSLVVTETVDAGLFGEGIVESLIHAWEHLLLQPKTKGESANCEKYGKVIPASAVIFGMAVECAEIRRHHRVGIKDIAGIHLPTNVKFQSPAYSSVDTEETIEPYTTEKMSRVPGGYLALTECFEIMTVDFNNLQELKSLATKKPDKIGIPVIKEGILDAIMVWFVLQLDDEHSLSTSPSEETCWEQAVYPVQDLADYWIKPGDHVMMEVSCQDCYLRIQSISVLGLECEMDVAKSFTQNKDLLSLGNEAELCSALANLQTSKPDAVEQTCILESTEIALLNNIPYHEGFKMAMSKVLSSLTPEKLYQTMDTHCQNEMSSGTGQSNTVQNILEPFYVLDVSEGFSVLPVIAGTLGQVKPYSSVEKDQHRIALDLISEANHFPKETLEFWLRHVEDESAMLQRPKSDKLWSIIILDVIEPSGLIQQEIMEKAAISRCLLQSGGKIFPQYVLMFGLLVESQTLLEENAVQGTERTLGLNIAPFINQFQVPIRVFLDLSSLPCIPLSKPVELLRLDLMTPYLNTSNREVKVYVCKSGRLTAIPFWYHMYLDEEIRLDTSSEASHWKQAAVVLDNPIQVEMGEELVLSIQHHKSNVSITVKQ
Method: Based on these outcomes, we resolved to explore the effect on the capability to inhibit PRMT9 enzymatic activity of further reduction of the distance between the pharmacophoric moieties. […] After the experiment was repeated with 100, 250, and 500 μM concentrations of each inhibitor, half inhibition was observed only at a concentration of roughly 250 μM (Figure 4d).
[…]. The experiments were performed as reported in the Experimental procedures section. GST-HsPRMT9 (a) and GST-HsPRMT7 (b) were incubated with human GST-SF3B2 (401–550) peptide or recombinant HsH2B, respectively (1 μg of enzyme, 5 μg of substrate), 0.14 μM [^3H]SAM, and the indicated concentrations of tested compounds at the corresponding optimal reaction temperature (37 °C for HsPRMT9, 15 °C for HsPRMT7). C. elegans GST-tagged enzymes PRMT9 (c) and PRMT7 (d) were incubated with GST-CeSFTB-2 (99–248) fragment or recombinant HsH2B, respectively (1 μg of enzyme, 5 μg of substrate), 0.14 μM [^3H]SAM, and the indicated concentrations of tested compounds at the corresponding optimal reaction temperature (25 °C for CePRMT9, 15 °C for CePRMT7). After SDS-PAGE, the gels were treated as previously described[48] and densitometry analysis was done using ImageJ software, and data was plotted as normalized activity to the no inhibitor controls.
Human PRMT9, C. elegans PRMT9, human PRMT7, and C. elegans PRMT7 plasmids were sequenced, expressed in E. coli as GST-fusion proteins, and purified as previously described.[48] Substrates were also sequenced and purified as described [human GST-SF3B2 (401–550);[13]C. elegans SFTB-2;[48] human histone H2B (New England Biolabs, M2505S)]. Xenopus laevis histone H2B was expressed in E. coli and purified similarly to what was previously reported by Luger et al.[72]
Reactions consisting of approximately 1 μg of enzyme (human or C. elegans GST-tagged enzymes PRMT9 and PRMT7), reacted with approximately 5 μg of substrate [for human PRMT9, human GST-SF3B2 401–550 fragment; C. elegans PRMT9 with C. elegans GST-SFTB-2 (99–248) fragment, or recombinant human histone H2B from New England Biolabs (M2505S)], were incubated for the indicated time in reaction buffer {50 mM potassium HEPES buffer, 10 mM NaCl, 1 mM dithiothreitol (DTT), pH 8.0 with 0.7 μM S-adenosyl-L-[methyl-^3H]methionine (^3H-AdoMet, PerkinElmer Life Sciences, 82.7 Ci/mmol, 0.55 mCi/mL in 10 mM H2SO4/EtOH [9:1 (v/v)])} in a final reaction volume of 60 μL. Each reaction was incubated at the corresponding optimal reaction temperature (37 °C for human PRMT9, 25 °C for C. elegans PRMT9, and 15 °C for C. elegans and human PRMT7 enzymes. MTA was dissolved in water, and a wavelength scan was taken to determine the final concentration using the extinction coefficient. The final concentrations used are indicated in the figure legends. […]. EML734, EML736, and EML709 were also dissolved in DMSO, and further dilutions were made in DMSO for the working stocks. For controls, no inhibitor reactions were created by the addition of the respective solvent (water for MTA and DMSO for EPZ015666 and EML inhibitors).
After the reaction incubations with the various concentrations of inhibitors, the reactions were quenched by adding 0.2 volume of 5× SDS sample loading buffer, and subsequently, the reactions were run on a 12.6% polyacrylamide Tris gel. To collect the radioactive signal, the gels were then treated in the same way as previously described.[48]
After various exposures were collected to ensure linear detection, densitometry analysis was done using ImageJ software, and data were plotted as normalized activity to the no inhibitor controls.

[2] = molecular target: T2, PRMT6 (Homo sapiens, UniProt Q96LA8); assay: HotSpot radioisotope-based filter assay, PRMT6
T2 construct: PRMT6 (residues 2–375, C-terminus); with an N-terminal GST-tag; GST (N); purchased Reaction Biology Corporation
T2 sequence (Q96LA8 2-375): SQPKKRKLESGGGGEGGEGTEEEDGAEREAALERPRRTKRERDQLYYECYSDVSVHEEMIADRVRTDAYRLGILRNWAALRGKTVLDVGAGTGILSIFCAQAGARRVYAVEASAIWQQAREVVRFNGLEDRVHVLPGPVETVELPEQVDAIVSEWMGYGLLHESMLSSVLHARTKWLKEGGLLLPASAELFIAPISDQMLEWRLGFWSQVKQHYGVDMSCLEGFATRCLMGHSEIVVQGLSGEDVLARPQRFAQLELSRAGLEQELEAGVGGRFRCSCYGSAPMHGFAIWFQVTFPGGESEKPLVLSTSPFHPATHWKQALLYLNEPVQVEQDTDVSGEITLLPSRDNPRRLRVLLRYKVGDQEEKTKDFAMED
Method: (§1) Then, ^3H-SAM (final concentration of 1 μM) was delivered into the reaction mixture to initiate the reaction. After incubation for 60 min at 30 °C, the reaction mixture was delivered to filter-paper for detection (as assessed by scintillation). Data were analyzed using Excel and GraphPad Prism 6.0 software (GraphPad Software Inc., San Diego, CA) for IC50 curve fits using sigmoidal dose vs response - variable slope (four parameters) equations.

[3] = molecular target: T3, PRMT5/MEP50 complex (Homo sapiens, UniProt O14744); assay: HotSpot radioisotope-based filter assay, PRMT5
T3 construct: residues PRMT5 2–637, C-terminus, and MEP50 2–342, C-terminus; FLAG (N); purchased Reaction Biology Corporation
T3 sequence (O14744 2-637): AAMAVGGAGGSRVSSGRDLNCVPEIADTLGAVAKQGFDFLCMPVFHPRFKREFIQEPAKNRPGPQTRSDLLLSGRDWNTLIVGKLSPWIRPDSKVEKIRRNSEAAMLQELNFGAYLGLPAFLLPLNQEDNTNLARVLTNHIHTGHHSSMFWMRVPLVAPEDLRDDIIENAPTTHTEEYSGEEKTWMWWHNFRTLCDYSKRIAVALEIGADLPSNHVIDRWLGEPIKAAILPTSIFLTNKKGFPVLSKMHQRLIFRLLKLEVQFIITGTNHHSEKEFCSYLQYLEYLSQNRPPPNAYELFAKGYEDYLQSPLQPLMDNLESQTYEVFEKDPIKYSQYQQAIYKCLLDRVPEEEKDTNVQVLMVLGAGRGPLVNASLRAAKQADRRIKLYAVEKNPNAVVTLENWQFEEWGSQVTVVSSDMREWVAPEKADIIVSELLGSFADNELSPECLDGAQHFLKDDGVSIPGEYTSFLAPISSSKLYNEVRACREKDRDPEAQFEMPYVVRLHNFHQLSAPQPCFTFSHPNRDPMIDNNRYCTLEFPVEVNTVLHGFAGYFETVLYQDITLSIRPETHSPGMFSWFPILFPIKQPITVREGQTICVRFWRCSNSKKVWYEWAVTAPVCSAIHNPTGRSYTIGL
T3 sequence (Q9BQA1 2-342 partner limits assumed): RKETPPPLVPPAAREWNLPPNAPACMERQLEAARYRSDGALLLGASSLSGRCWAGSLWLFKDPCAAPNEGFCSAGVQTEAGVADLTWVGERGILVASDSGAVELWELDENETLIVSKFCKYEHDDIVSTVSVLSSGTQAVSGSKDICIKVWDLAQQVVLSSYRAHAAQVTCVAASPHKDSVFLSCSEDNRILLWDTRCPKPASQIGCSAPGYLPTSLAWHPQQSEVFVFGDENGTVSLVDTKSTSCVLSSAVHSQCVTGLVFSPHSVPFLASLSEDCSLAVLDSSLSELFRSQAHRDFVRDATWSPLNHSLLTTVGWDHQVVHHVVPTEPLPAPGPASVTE
Method: as §1

[4] = molecular target: T4, PRMT8 (Homo sapiens, UniProt Q9NR22); assay: HotSpot radioisotope-based filter assay, PRMT8
T4 construct: (residues 61–394, C-terminus); with C- and N-terminal His-tags; His (N); His (C); purchased Reaction Biology Corporation
T4 sequence (Q9NR22 61-394): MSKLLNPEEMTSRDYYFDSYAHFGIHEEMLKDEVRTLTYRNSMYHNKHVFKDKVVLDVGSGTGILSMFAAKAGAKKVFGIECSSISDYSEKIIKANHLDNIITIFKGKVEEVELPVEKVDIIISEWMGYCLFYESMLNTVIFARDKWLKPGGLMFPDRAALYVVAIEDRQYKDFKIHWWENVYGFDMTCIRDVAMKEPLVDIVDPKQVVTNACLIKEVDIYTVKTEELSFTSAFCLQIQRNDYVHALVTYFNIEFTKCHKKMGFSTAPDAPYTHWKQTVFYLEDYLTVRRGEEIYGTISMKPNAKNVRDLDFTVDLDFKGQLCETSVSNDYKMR
Method: as §1

[5] = Figure 2, from IC50 values of ref 31

SMILES	remaining activity at 5 µM [1]	remaining activity at 25 µM [1]	remaining activity at 50 µM [1]	remaining activity at 100 µM [1]	selectivity index for PRMT7 over PRMT6 [2, 5]	selectivity index for PRMT7 over PRMT5 [3, 5]	selectivity index for PRMT7 over PRMT8 [4, 5]	IC50 ([2]; 5 μM GST-GAR, 3H-SAM 1 μM)	IC50 ([3]; 5 μM histone H2A, 3H-SAM 1 μM)	IC50 ([4]; 5 μM histone H4, 3H-SAM 1 μM)
COC(=O)c1cc(O)c2cc(NC(=O)NCCCNC(=N)NC[C@H]3O[C@@H](n4cnc5c(N)ncnc54)[C@H](O)[C@@H]3O)ccc2c1 [1a]	30.4%	3.42%	1.37%	0.3%						
COC(=O)c1cc(O)c2cc(NC(=O)NCCCCNC(=N)NC[C@H]3O[C@@H](n4cnc5c(N)ncnc54)[C@H](O)[C@@H]3O)ccc2c1 [1b]	46%	13.8%	6.15%	1.64%						
COC(=O)c1cc(O)c2cc(NC(=O)NCCCCCNC(=N)NC[C@H]3O[C@@H](n4cnc5c(N)ncnc54)[C@H](O)[C@@H]3O)ccc2c1 [1c]	32%	6.5%	0.52%	0.34%	455 fold	234 fold	27 fold			
COC(=O)c1cc(O)c2cc(NC(=O)NCCCNC(=N)NC[C@H]3O[C@@H](n4cnc5c(N)ncnc54)[C@H](O)[C@@H]3O)cc(C(F)(F)F)c2c1 [1j, Methyl 6-(3-(3-(3-(((2R,3S,4R,5R)-5-(6-Amino-9H-purin-9-yl)-3,4-dihydroxytetrahydrofuran-2-yl)methyl)guanidino)propyl)ureido)-4-hydroxy-8-(trifluoromethyl)-2-naphthoate]								49700 nM	1010 nM	1970 nM
